Results on one substance are retold here after patent US20210038732A1, “ANTICANCER MICRORNA AND LIPID FORMULATIONS THEREOF” (INTERNA TECHNOLOGIES B.V., priority 2018, published 2021).

For data set [1], the system named is genes downregulated in at least three cell lines. Put plainly: Annotation clustering of downregulated genes with DAVID software. On the set-up: species or system human. From the text: For clustering and pathway analysis, a bigger gene set was required. […] Other clusters contained genes with roles in angiogenesis, unfolded protein response, chemotaxis, protein transport, nucleoside metabolism, glycosylation, oncogenesis, wound healing. […] These 161 genes are ERMP1, MCL1, ZDHHC18, KIAA1147, IDS, EIF4B, ETS1, TXLNA, NT5E, WSB2, PLAUR, LRRC40, PTPLB, SLC15A1, NCEH1, IL17RD, STMN1, AIMP2, PHACTR2, GALNT1, LAMC2, SCP2, SLC26A2, LUZP1, SHMT2, UBP1, PHLDA2, ST5, ENDOD1, CGNL1, MARCKSL1, RAB11FIP5, CCND1, RUSC1, FAM168B, ZC3H7B, PPTC7, SLC39A5, ACSS2, TPP1, HYOU1, DCTN5, CRKL, WDFY2, WDR82, SLC6A12, CDK6, SULF2, TWISTNB, ATP5F1, ALDH9A1, TOR4A, NET1, RSF1, NUP50, ZMAT3, AP2M1, MPP2, ITGB3, GALNT14, SLC35D1, PPARGC1A, TBL1XR1, MSANTD3, CLSTN1, PITPNB, CECR2, KIAA1644, ARHGAP29, KIAA1191, GREB1, PIK3R1, TNFRSF21, SEPN1, SYNRG, LRP4, ZNF365, CRYAA, MED21, GNAI3, ATP5SL, UBE2L6, ANKRD13A, GCH1, NIPA1, TRIM62, USP39, HEG1, DCAF7, LRRC8A, SOX5, IRF1, MORC4, UNC119B, FAF2, SLC30A1, C1QBP, ST3GAL4, TRIB2, TBC1D5, TMPPE, MAPK8, CBX1, CADM1, CCDC28A, YWHAZ, ERAP2, STON2, AP5M1, TGFB2, CYTH1, FAM20B, DPY19L1, ARHGAP19, LPAR3, LMLN, NUDT15, PLAU, VAMP8, HHAT, AGPAT1, ATP8B2, ACPL2, SCAMP4, LAT2, OSMR, NUDT21, HPRT1, STARD7, GABPA, CDC42EP2, THBS4, ATP6V1B2, PRNP, GFPT1, MAX, KRAS, CNOT6, NUDT3, RFWD3, APPL1, SLC23A2, BOD1, PDE3A, SLC30A7, CEP41, NOTCH2, RGS2, CDC42EP4, TP53INP1, SQSTM1, DDAH1, SLC35D2, FOCAD, GPATCH11, CBL, TMEM30B, HFE, PLEKHB2, ARPC5, and ABI2. Among these genes, NT5E, TNFRSF21, YWHAZ, MAPK8, PLAU, PLAUR, NOTCH2, ETS1, IL17RD, CDK6, EIF4B, and MCL1 are particularly interesting for their crucial involvement in the cell cycle pathway, in immune activation, as well as in cell movement. […] ETS1, YWHAZ, MPP2, PLAU, CDK4, CDK6, EIF4B, RAD51, CCNA2, STMN1, and DCAF7 are of particular interest for their crucial involvement in regulation of the cell cycle.

For data set [2], the system named is H22 (mouse liver tumor cells). Put plainly: Re-challenge of surviving treated mice with H22 cells (Example 4.4). Format: in vivo. The method, then: (§1) To investigate the long-term immunity in miRNA-193a treated mice against 4T1 cells, on day 75 after inoculation, mice treated with miRNA-193a and 8 naïve (non-tumor bearing) mice were re-challenged by subcutaneous injection of 3×10^5 4T1 mouse tumor cells in PBS (0.1 mL/mouse) into the right front flank. TV and BW were monitored for 3 weeks. Then, to investigate the immunization status of miRNA-193a treated mice against other cell types, on day 101, mice treated with miRNA-193a and 8 naïve (non-tumor bearing) mice were re-challenged by subcutaneous injection of H22 (mouse liver tumor cells) cells in PBS (0.1 mL/mouse) into the right lower flank.

Data set [3] deals with 4T1 mouse tumor cells. Description: Re-challenge of surviving treated mice with 4T1 cells (Example 4.4). Format: in vivo. The method, then:
as §1

The test system of data set [4] is HeP3B, SNU449. Put plainly: Cell motility, Boyden chamber assay. Format: cell-based, human. The note with it: 10 nM. The method, then: (§2) To check the migratory ability of cells, a Boyden Chamber assay was performed, which is based on a chamber of two medium-filled compartments separated by a […] pore size membrane (BD falcon). In this assay, depending on cell type 60,000-120,000 cells were seeded in the upper compartment of the membrane in serum free medium and were allowed to migrate through the pores of the membrane into the lower compartment, in which serum is present in the media. The serum acts as a chemoattractant. After an appropriate incubation time, the membrane between two compartments was fixed, stained and 6 different images from each membrane were taken. The number of migratory cells were counted using Image J analysis.
(§3) Different biological effects of miRNA-193a-3p have been tested in various cancer cell lines (see Table 13). For this, various cells were treated with miRNA-193a at different concentrations (1, 3, 10 nM). For all experiments controls (untreated, mock and scrambled) were measured. All assays were performed at 24h, 48h and 72h time points. Data shown in Table 13 are the results for miRNA-193a at 10 nM concentration at indicated time points. All the results have been quantified and normalized to the mock control.
(§4) miRNA-193a treatment in various cancer cell lines decreased cell viability over time as measured by either an MTS assay or by cell count. It enhanced apoptosis induction over time as measured by a caspase 3/7 apoptosis assay. […] It is of note that due to intrinsic characteristics and gene mutation status of each cell line, performing one method to detect apoptosis is not always ideal for all cell lines.

For data set [5], the system named is A549. Description: Cell motility, Boyden chamber assay. The note with it: 10 nM; A549 (first of two symbols in the cell). Format: cell-based, human. How it is done: as §2, §3, §4

As to “miRNA-193a: duplex of the miRNA-193a-3p of SEQ ID NO: 218 (mimic, sense) with antisense strand SEQ ID NO: 219; naked in vitro, formulated in vivo (sense UGGGACUUUGUAGGCCAGUUTT; antisense AACUGGCCUACAAAGUCCCAGU; chemistry not given here; listed as Homo sapiens)”, the “Enrichment score (ES)” value turned out to be 2.17 in data set [1] (Gene cluster Angiogenesis); 2.55 in data set [1] (Gene cluster Apoptosis); 1.66 in data set [1] (Gene cluster Chemotaxis); 1.47 in data set [1] (Gene cluster Glycosylation); 1.16 in data set [1] (Gene cluster Immune activation); 1.49 in data set [1] (Gene cluster Nucleoside metabolism). Further, the “Enrichment score (ES)” value in data set [1] (Gene cluster Oncogenesis) stood at 1.37; in data set [1] (Gene cluster Protein transport), 1.51; in data set [1] (Gene cluster Unfolded protein response), 1.84; in data set [1] (Gene cluster Wound healing) it was 1.18. Also, the “Tumor take after re-challenge with H22 cells” value in data set [2] (re-challenge day 101, 38 days post end of treatment) turned out to be 100%. Besides, in data set [2] (re-challenge day 101, vs naïve mice), the “H22 tumor growth after re-challenge” value was “rapid inhibition of H22 tumor growth”. In data set [3] (re-challenge day 75), the “Treated mice that showed tumor take when re-challenged with 4T1 cells” value turned out to be 3 mice. Also, the “Tumor take/growth after re-challenge with 4T1 cells” value in data set [3] (re-challenge day 75, 14 days post end of treatment, vs naïve mice) was “Pronounced prevention of tumor take/growth”. For the same substance, the “Motility (18 to 24 h)” value in data set [4] and in data set [5] was “↓” each time.
